Consider 1 compound from PubChem BioAssay (NCI).

Some test systems named below: A549 NSCLC; DLD-1 colon; DMS 114 small cell lung; DMS 273 small cell lung; HOP-18 NSCLC; K-562 leukemia; KM20L2 colon; M19-MEL melanoma; MALME-3M melanoma; NCI-H460 lung; P388/ADR leukemia; SF-295 CNS; SF-539 CNS; SNB-78 CNS; SW-620 colon; UO-31 renal; XF 498 CNS.
Holding throughout (test): NCI tumour cell line growth inhibition, 48 h

SMILES strings stand for the structures.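 Protocol summary: plate cells (96-well), add compound at 5 concentrations, incubate 48 h, interpolate endpoints linearly. The concentration for full growth arrest is given as TGI.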 Some results are limits rather than exact numbers.

`CCCCN(C)/N=N/c1nc[nH]c1C(N)=O`: the TGI with A549 NSCLC, with DLD-1 colon, in the experiment on DMS 114 small cell lung, in the experiment on DMS 273 small cell lung, with HOP-18 NSCLC and in the experiment on K-562 leukemia was over 100 µM throughout. Besides, the TGI in the experiment with KM20L2 colon, in the experiment with M19-MEL melanoma, in the experiment with MALME-3M melanoma, in the experiment on NCI-H460 lung, in the experiment on P388/ADR leukemia and with SF-295 CNS was over 100 µM each time. In addition, the TGI with SF-539 CNS was over 100 µM; in the experiment on SNB-78 CNS, over 100 µM; in the experiment with SW-620 colon it was over 100 µM; in the experiment on UO-31 renal, over 100 µM; with XF 498 CNS it was 95.5 µM.
